IC50 and Ki data for ten molecules are collected here from patent publication US20160185797A1, “ALKYNYL ALCOHOLS AND METHODS OF USE” (Genentech, Inc., priority 2013, published 2016).

The test system of test [1] is p52 (NF-kB2) nuclear translocation in HeLa cells. Briefly: p52 (NF-kB2) nuclear translocation assay in HeLa cells, anti-lymphotoxin beta receptor antibody stimulated (non-classical NF-kB signaling), high content imaging. The test is classed as cell-based. Particulars: Homo sapiens, 100 ng/mL anti-lymphotoxin beta receptor antibody for 5 hours, read-out: p52 HeLa Transloc Assay (IC50). As for the experimental part:
(§1) Several assays were developed to profile the cellular activities of NIK inhibitors.
(§2) (2) A second set of cell assay are used to define the selectivity of NIK inhibitors toward inhibition of classical vs. non-classical NF-kB signaling and rely on quantification of the nuclear translocation of p52 (NF-kB2) and REL-A (p65) using high content cellular imaging. For the p52 (non-classical NF-kB signaling) nuclear translocation assay, HeLa cells are treated with different concentrations of compounds (0.2% DMSO final) in medium containing 10% fetal bovine serum and then stimulated with 100 ng/mL of an anti-lymphotoxin beta receptor antibody (R&D Systems) for 5 hours. In the REL-A nuclear translocation assay, HeLa cells are incubated with compounds (0.2% DMSO final) for 4.5 hours in medium containing 10% fetal bovine serum before stimulating them with 10 ng/mL tumor necrosis factor (TNF)-α (R&D Systems) for 30 minutes. Cells are fixed with 4% paraformaldehyde, permeabilized by adding 0.1% Triton X-100 in phosphate buffered saline, and then are incubated with either 2 ug/mL anti-p52 antibody (Millipore) or 400 ng/mL anti-REL-A (p65) antibody (Santa Cruz Biotechnology). Finally, the cells are incubated with an Alexa488-labeled secondary antibody (Invitrogen) and DRAQ5 DNA stain (Biostatus). Imaging is carried out using an Opera reader (Perkin Elmer) and data are analyzed with the aid of Acapella software (Perkin Elmer). The p52 or REL-Atranslocation into the nucleus is quantified by the ratio of the nuclear to cytoplasmic signal intensity. […] The compounds in listed in Table 1 have the corresponding inhibitory value (IC50 in micromolar) for NIK p52 Translocation Assay as set forth in Table 2.
(§3) The compounds in listed in Table 1 have the corresponding inhibitory values (IC50 in micromolar) for the Translocation Assays as set forth in Table 2.

In test [2] the test system is REL-A (p65) nuclear translocation in HeLa cells. In words: REL-A (p65) nuclear translocation assay in HeLa cells, TNF-α stimulated (classical NF-kB signaling), high content imaging. The format is cell-based. The settings on record: Homo sapiens, HeLa, compound 4.5 h, then 10 ng/mL TNF-α for 30 minutes, read-out: REL-A HeLa Transloc Assay (IC50). As for the experimental part:
as §1, §2, §3

Test [3] concerns the target T1, nuclear factor-kappa B (NF-kB)-inducing kinase (NIK) (Homo sapiens, UniProt Q99558).
T1 construct: made in house; host or cells: baculovirus-infected insect cells
In words: NIK enzyme inhibition assay (Transcreener ADP fluorescence polarization, NIK ADP-FP). The format is biochemical. (In general: Polarisation of emitted light reports the rotation of a fluorescent probe.)
Protocol: NIK Enzyme Inhibition Assay:
The ability of the nuclear factor-kappa B (NF-kB)-inducing kinase (NIK) to catalyze the hydrolysis of adenosine-5′-triphosphate (ATP) was monitored using the Transcreener ADP (adenosine-5′-diphosphate) assay (BellBrook Labs). […] Reactions were quenched by the addition of 20 mM 2,2′,2″,2′″-(ethane-1,2-diyldinitrilo)tetraacetic acid and 0.01% Brij 35. The tracer bound to the antibody was displaced by the ADP generated during the NIK reaction, which causes a decrease in fluorescence polarization that was measured by laser excitation at 633 nm with a Fluorescence Correlation Spectroscopy Plus reader (Evotec AG). Equilibrium dissociation constant (Ki) values for NIK inhibitors are calculated from plots of activity vs. inhibitor concentration using Morrison's quadratic equation that accounts for the potential of tight binding, and by also applying the conversion factor that accounted for competitive inhibition and the concentration of substrate used in the assay relative to its Michaelis constant (Km).

T1 sequence (Q99558 whole entry): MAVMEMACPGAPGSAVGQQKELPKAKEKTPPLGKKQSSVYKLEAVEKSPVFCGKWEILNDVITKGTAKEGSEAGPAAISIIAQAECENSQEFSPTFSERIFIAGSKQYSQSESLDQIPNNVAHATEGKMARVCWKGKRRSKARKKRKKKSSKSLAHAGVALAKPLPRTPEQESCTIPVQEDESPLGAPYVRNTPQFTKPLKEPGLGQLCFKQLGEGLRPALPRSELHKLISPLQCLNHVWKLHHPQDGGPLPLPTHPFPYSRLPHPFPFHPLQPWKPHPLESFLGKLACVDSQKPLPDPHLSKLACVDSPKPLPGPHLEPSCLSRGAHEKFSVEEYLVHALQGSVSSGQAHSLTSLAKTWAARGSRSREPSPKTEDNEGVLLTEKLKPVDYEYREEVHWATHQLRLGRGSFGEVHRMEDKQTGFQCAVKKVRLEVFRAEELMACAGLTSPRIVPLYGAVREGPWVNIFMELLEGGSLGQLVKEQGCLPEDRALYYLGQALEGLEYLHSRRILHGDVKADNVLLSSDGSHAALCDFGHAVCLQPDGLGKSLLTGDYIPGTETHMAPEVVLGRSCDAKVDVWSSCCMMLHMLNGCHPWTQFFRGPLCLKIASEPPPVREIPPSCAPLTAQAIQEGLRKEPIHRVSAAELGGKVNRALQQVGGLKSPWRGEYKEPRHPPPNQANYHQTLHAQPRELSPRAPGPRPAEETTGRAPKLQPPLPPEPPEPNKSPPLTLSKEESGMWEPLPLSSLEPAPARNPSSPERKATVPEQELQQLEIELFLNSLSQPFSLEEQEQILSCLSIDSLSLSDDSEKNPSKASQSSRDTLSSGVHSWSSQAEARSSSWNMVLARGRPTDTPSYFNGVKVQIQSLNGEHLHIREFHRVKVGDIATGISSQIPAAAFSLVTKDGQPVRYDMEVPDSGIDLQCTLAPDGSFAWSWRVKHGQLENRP

For `CN1CC[C@@](O)(C#Cc2cccc(-c3nc(C(N)=O)cc(N4CC5(COC5)C4)n3)c2)C1=O` [Example 11, 2-[3-[2-[(3R)-3-hydroxy-1-methyl-2-oxo-pyrrolidin-3-yl]ethynyl]phenyl]-6-(6-oxa-2-azaspiro[3.3]heptan-2-yl) pyrimidine-4-carboxamide], the IC50 is 2500 nM in test [1] and greater than 20 µM in test [2]. The molecule further registered a Ki in test [3] of 0.00465 µM.
The matching figures for `CNc1cc(C(N)=O)nc(-c2cccc(C#C[C@]3(O)CCN(C)C3=O)c2)n1` [Example 12, 2-[3-[2-[(3R)-3-hydroxy-1-methyl-2-oxo-pyrrolidin-3-yl]ethynyl]phenyl]-6-(methylamino)pyrimidine-4-carboxamide]: 236 nM, greater than 20 µM and 0.00033 µM.
On to `Cc1cc(C(N)=O)nc(-c2cccc(C#C[C@]3(O)CCN(C)C3=O)c2)n1` [Example 13, 2-[3-[2-[(3R)-3-hydroxy-1-methyl-2-oxo-pyrrolidin-3-yl]ethynyl]phenyl]-6-methyl-pyrimidine-4-carboxamide], for which the figures for the IC50 in test [1] and in test [2] were 382 nM and greater than 20 µM, respectively. This molecule also displayed a Ki in test [3] of 0.00048 µM.
`CN1CC[C@@](O)(C#Cc2cccc(-c3nc(N)cc(C(N)=O)n3)c2)C1=O` [Example 14, 6-amino-2-[3-[2-[(3R)-3-hydroxy-1-methyl-2-oxo-pyrrolidin-3-yl]ethynyl]phenyl]pyrimidine-4-carboxamide]: the IC50 in test [1] was 665 nM; in test [2] it was greater than 20 µM. The same molecule returned a Ki in test [3] of 0.00038 µM.
For `CN1CC[C@@](O)(C#Cc2cccc(-c3nc(C(N)=O)ccc3F)c2)C1=O` [Example 15, 5-fluoro-6-[3-[2-[(3R)-3-hydroxy-1-methyl-2-oxo-pyrrolidin-3-yl]ethynyl]phenyl] pyridine-2-carboxamide], the IC50 in test [1] is 630 nM; in test [2], greater than 20 µM. In test [3], this molecule showed a Ki of 0.00121 µM.
As for `CC(C)c1cc(C(N)=O)nc(-c2cccc(C#C[C@]3(O)CCN(C)C3=O)c2)n1` [Example 16, 2-[3-[2-[(3R)-3-hydroxy-1-methyl-2-oxo-pyrrolidin-3-yl]ethynyl]phenyl]-6-isopropyl-pyrimidine-4-carboxamide], the IC50 in test [1] was 191 nM; in test [2], greater than 20 µM. In test [3], the Ki came out at 0.00054 µM.
The matching figures for `CN1CC[C@@](O)(C#Cc2cccc(-c3nc(C(N)=O)cc(C(F)(F)F)n3)c2)C1=O` [Example 17, 2-[3-[2-[(3R)-3-hydroxy-1-methyl-2-oxo-pyrrolidin-3-yl]ethynyl]phenyl]-6-(trifluoromethyl)pyrimidine-4-carboxamide]: 225 nM, greater than 20 µM and 0.00084 µM.
For `COCC1CCCN1c1cc(C(N)=O)nc(-c2cccc(C#C[C@]3(O)CCN(C)C3=O)c2)n1` (stereo partly drawn) [Example 18, 2-[3-[2-[(3R)-3-hydroxy-1-methyl-2-oxo-pyrrolidin-3-yl]ethynyl]phenyl]-6-[2-(methoxymethyl)pyrrolidin-1-yl]pyrimidine-4-carboxamide] the same measures were 39 nM, greater than 20 µM and 0.00219 µM.
For `CON(C)c1cc(C(N)=O)nc(-c2cccc(C#C[C@]3(O)CCN(C)C3=O)c2)n1` [Example 19, 2-[3-[2-[(3R)-3-hydroxy-1-methyl-2-oxo-pyrrolidin-3-yl]ethynyl]phenyl]-6-[methoxy (methyl)amino]pyrimidine-4-carboxamide] the same measures were 45.5 nM, greater than 20 µM and 0.0011 µM.
Take `CN1CC[C@@](O)(C#Cc2cccc(-c3nc(C(N)=O)cc(N4CCc5ccccc54)n3)c2)C1=O` [Example 20, 2-[3-[2-[(3R)-3-hydroxy-1-methyl-2-oxo-pyrrolidin-3-yl]ethynyl]phenyl]-6-indolin-1-yl-pyrimidine-4-carboxamide]: the IC50 was found to be 374 nM in test [1] and 19.1 µM in test [2]. For the same molecule, the affinity in test [3] corresponds to a Ki of 0.00079 µM.

As usually defined, the IC50 is the midpoint of a concentration-inhibition curve. For orientation: Ki means a dissociation constant, usually derived from enzyme kinetics or from competition with a known ligand.
